According to paper PMC11636681, “Pharmacokinetics and pharmacodynamics of antibacterial peptide NZX in Staphylococcus aureus mastitis mouse model” (Applied Microbiology and Biotechnology, 2024):
Marks after values point to notes of the source that are not given here. Positions of bridges follow the written chain, without caps; N, C: chain ends. Residues, ends and D or L forms follow the SMILES beside them.

Columns and labels:
[1] = tested on: three S. aureus strains; assay: Mouse mastitis model, histopathological analysis and scoring of mammary tissues; assay type: in vivo; settings: mice infected with the three S. aureus strains, 100 μg/gland
Text: The 7 to 8-weeks old ICR mice (80 females, 40 males) were housed in independent ventilated cages, and feed with autoclaved laboratory food and water. Female mice in heat were put into the cage of males (females:males, 2:1) overnight and checked for vaginal plugs at the following morning to induce pregnancy. ICR-lactating mice were used at 6 to 8 days after the birth of the offspring. The mouse mastitis model was established as previously described (Li et al. [2017]). Mice were randomly divided into nine groups: NC group (uninfected group), PC group (infected but without treatment), NZX groups (25, 50, 100, 200 and 400 μg/gland, respectively), lincomycin group (100 μg/gland), and ceftiofur group (100 μg/gland). Each experimental group has six independent experiments with three mice. Specially, the pups were removed 1 h before the intramammary injection of both L4 (on the left) and R4 (on the right) abdominal mammal glands. […]
After mouse sacrifice, one part of mammary tissue was taken for bacterial count, and the other part was used for the histopathological analysis. […] The bacterial number on each plate was counted and the results were expressed as Log10 CFU per gram of mammary tissues. […]

[2] = tested on: S. aureus E48; settings: 1 × 10^5 CFU/mL, 16–18 h, 37 °C, value marked a, already published, ref Zheng et al. [2022]; cited from earlier work
Text: Table 1 The MICs, MBCs and MPCs of NZX and antibiotics against S. aureus strains (μM) | column: S. aureus E48 / MIC

[3] = tested on: S. aureus ATCC 43300; settings: 1 × 10^5 CFU/mL, 16–18 h, 37 °C, value marked a, already published, ref Zheng et al. [2022]; cited from earlier work
Text: Table 1 The MICs, MBCs and MPCs of NZX and antibiotics against S. aureus strains (μM) | column: S. aureus ATCC 43300 / MIC

Which results are given for `CC[C@H](C)[C@@H]1NC(=O)[C@H](CO)NC(=O)[C@H](CCCCN)NC(=O)[C@@H]2CSSC[C@@H](C(=O)N[C@@H](Cc3ccc(O)cc3)C(=O)O)NC(=O)[C@H](CCCCN)NC(=O)[C@@H]3CSSC[C@H](NC(=O)[C@H](CCC(N)=O)NC(=O)[C@H]([C@@H](C)CC)NC(=O)[C@H](CC(=O)O)NC(=O)[C@H](CC(=O)O)NC(=O)[C@H](CCC(=O)O)NC(=O)[C@H](CO)NC(=O)[C@H](Cc4c[nH]c5ccccc45)NC(=O)[C@@H]4CCCN4C(=O)CNC(=O)[C@H](CC(N)=O)NC(=O)[C@@H](NC(=O)CNC(=O)[C@H](Cc4ccccc4)NC(=O)CN)CSSC[C@H](NC(=O)[C@H](Cc4ccc(O)cc4)NC(=O)CNC(=O)CNC(=O)[C@H](CCCCN)NC(=O)[C@H](Cc4ccc(O)cc4)NC(=O)CNC(=O)[C@H](CCCCN)NC1=O)C(=O)N[C@@H](C)C(=O)N[C@@H](CCCNC(=N)N)C(=O)NCC(=O)NCC(=O)N[C@@H](Cc1ccccc1)C(=O)N[C@@H](C(C)C)C(=O)N3)C(=O)N[C@@H](Cc1c[nH]cn1)C(=O)N[C@@H](CC(N)=O)C(=O)N[C@@H](Cc1c[nH]cn1)C(=O)N2` [NZX] (H-GFGCNGPWSEDDIQCHNHCKSIKGYKGGYCARGGFVCKCY-OH; disulfide 4-30, 15-37, 19-39; N-terminus and C-terminus assumed)?
inflammatory symptoms of mammary tissue (H&E histology) ([1]; 24 h after treatment): obviously improved; pathological scores of mammary tissues ([1]; compared with the PC group): significantly decreased; MIC [2]: 0.23^a μM; MIC [3]: 0.23^a μM
